Patent publication US20250064794A1, “A THERAPEUTIC COMBINATION COMPRISING A TIGIT ANTAGONIST, A PD-1 ANTAGONIST, AND LENVATINIB” (EISAI R&D MANAGEMENT CO., LTD., priority 2021, published 2025)

Experiments:
CT26 tumor = assay: Anti-tumor efficacy in CT26 tumor model; type: in vivo, female BALB/c mice
Description: The present Example describes anti-tumor effects of a combination of a TIGIT antagonist, a PD-1 antagonist and lenvatinib using a CT26 tumor model.
Prior to treatment initiation, female BALB/c mice aged 8 weeks weighing between 18 to 21 grams were anesthetized and subcutaneously injected into the rear flank with 0.3×10^6 CT26 log-phase sub-confluent cells. When the mean tumor volume of inoculated animals with CT26 reached approximately 146 mm^3 (13 days later) mice were pair-matched into 8 treatment groups consisting of 10 mice per group.
Antibody Reagents in this Example Include: • Anti-PD-1 mIgG1 antibody, which is a murinized version of a rat anti-mouse PDT Ab with a mouse IgG1 Fe; • Anti-TIGIT mIgG2a antibody having a mouse Fe region of mIgG2a subtype that is the murine counterpart isotype to human isotype IgG1; • Isotype mIgG1 antibody, which is a mouse IgG1 isotype-matched control monoclonal antibody specific for adenoviral hexon 25; and • Isotype mIgG2a antibody, which is a mouse IgG2a isotype-matched control monoclonal antibody specific for adenoviral hexon 25.
• 1) 0.5% methylcellulose (Vehicle)+isotype mIgG1 antibody+isotype mIgG2a antibody; • 2) Vehicle+anti-PD-1 mIgG1 antibody+isotype mIgG1 antibody; • 3) Vehicle+isotype mIgG1 antibody+anti-TIGIT mIgG2a antibody; • 4) Lenvatinib+isotype mIgG1 antibody+isotype mIgG2a antibody; • 5) Vehicle+anti-PD-1 mIgG1 antibody+anti-TIGIT mIgG2a antibody; • 6) Lenvatinib+anti-PD-1 mIgG1 antibody+isotype mIgG2a antibody; • 7) Lenvatinib+isotype mIgG1 antibody+anti-TIGIT mIgG2a antibody; and • 8) Lenvatinib+anti-PD-1 mIgG1 antibody+anti-TIGIT mIgG2a antibody.
Vehicle and lenvatinib were orally gavage-dosed once daily (QD) at 10 mg/kg body weight. Isotype control, a mouse monoclonal antibody specific for adenoviral hexon on IgG1 or IgG2a backbones, as well as anti-PD-1 and anti-TIGIT antibodies were dosed intraperitoneally every 5 days at 10 mg/kg body weight. Start of treatments was considered Day 0 and dosing based on described schedules continued as described until Day 40. […]

[1] = in vivo; cited from earlier work
[2] = Day 40, 10 mice per group, lenvatinib 10 mg/kg QD, antibodies 10 mg/kg IP every 5 days

COc1cc2nccc(Oc3ccc(NC(=O)NC4CC4)c(Cl)c3)c2cc1C(N)=O [Lenvatinib monotherapy, 4-[3-chloro-4-(cyclopropylaminocarbonyl)aminophenoxy]-7-methoxy-6-quinolinecarboxamide]
TGI at Day 12 (CT26 tumor; CT26 s.c. tumors, treatment started at 146 mm^3, lenvatinib 10 mg/kg orally QD, antibodies 10 mg/kg intraperitoneally every 5 days, vs Vehicle group at Day 12): 36% (p = 0.014) | End of study CRs (complete tumor regressions) (CT26 tumor; [2]): 0 CRs, 0 PRs | End of study PRs (partial tumor regressions) (CT26 tumor; [2]): 0 CRs, 0 PRs | half-life [1]: 28 h
